# Measured values: publication PMC12459020, “Chemical Probes that Target a Dissociative LuxR-Type Quorum Sensing Receptor in Gram-Negative Bacteria” (ACS Chemical Biology, 2025)
# Read-outs that look alike come from different tables or passages of the source.
# Tests used:
# [1] = target: T1, EsaR (Pantoea stewartii subsp. stewartii, UniProt P54293); experiment: cell-based; details: for activation at 100 µM / inhibition at 100 µM: 3.5 h; for activation at 100 µM: read-out: EsaR-repressed (pesaR) [%] agonism; for inhibition at 100 µM: read-out: EsaR-repressed (pesaR) antagonism
# T1 construct: expressed in transfected cells; host or cells: E. coli JLD271 (K12 ΔsdiA), arabinose-induced pJN105-esaR
# T1 sequence (P54293 whole entry): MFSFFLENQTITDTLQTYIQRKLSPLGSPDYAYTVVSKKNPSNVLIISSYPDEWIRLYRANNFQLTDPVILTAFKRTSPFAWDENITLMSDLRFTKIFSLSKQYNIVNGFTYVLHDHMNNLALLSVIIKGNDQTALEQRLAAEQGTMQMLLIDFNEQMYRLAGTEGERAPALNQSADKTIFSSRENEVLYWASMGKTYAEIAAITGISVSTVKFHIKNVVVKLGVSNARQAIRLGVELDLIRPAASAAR
# Method in brief: (§1)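 E. coli carrying arabinose-induced esaR plus pesaS (activated) or pesaR (repressed) promoter fused to lux or GFP; P. stewartii ESN51 GFP reporters also used.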
# [2] = tested on: ExpR1; details: cited from earlier work; for ExpR1 antagonism: 5 µM compound against 5 µM OHHL, negative values indicate potential activators, ref 6 (SI; Palmer et al., 2011); for ExpR1 [%] (agonism, activation): compounds at 200 μM, cellulase activity in P. versatile AC5117, ref Palmer et al., 2011 (main ref 44, SI ref 6)
# [3] = target: T1, EsaR; experiment: cell-based; details: for activation at 100 µM / inhibition at 100 µM: 3.5 h; for activation at 100 µM: read-out: EsaR-activated (pesaS) [%] agonism; for inhibition at 100 µM: read-out: EsaR-activated (pesaS) antagonism; for EsaR agonism, in words: E. coli EsaR reporters, primary screen at 100 μM
# Method in brief: as §1
# [4] = tested on: LuxR; details: cited from earlier work; for LuxR antagonism: 5 µM compound against 5 µM OHHL, negative values indicate potential activators, ref 6 (SI; Palmer et al., 2011); for LuxR [%] (agonism, activation): compounds at 200 μM, luminescence in V. fischeri ES114 (ΔluxI), ref Palmer et al., 2011 (main ref 44, SI ref 6)
# [5] = tested on: P. stewartii ΔesaI (ESN51); experiment: Mucoidy (exopolysaccharide) phenotypic assay on CPG agar; type: cell-based, Pantoea stewartii
# Excerpt: In P. stewartii, EsaR regulates the production of the exopolysaccharide stewartan, which clogs the xylem of infected plants and leads to the wilt and lesions characteristic of Stewart’s wilt. EsaR binds directly to the rcsA promoter to repress transcription at low cell density, and when this repression is relieved at high cell density, RcsA contributes to activation of the cps gene cluster, which encodes the stewartan biosynthetic pathway. Exopolysaccharide production can be visualized by the growth of mucoid colonies on casamino acid-peptone-glucose (CPG) agar plates, and this phenotypic assay is commonly used to evaluate EsaR-mediated QS in P. stewartii. , To investigate the ability of the synthetic EsaR agonists uncovered here to regulate a QS-controlled phenotype in P. stewartii, selected compounds were tested for their ability to induce mucoidy in the P. stewartii (ΔesaI) strain, ESN51 (Figure ).
# P. stewartii ΔesaI (ESN51) was grown on Casamino Peptone Glucose (CPG) agar (1 g/L casamino acids, 10 g/L peptone, 10 g/L glucose, 17 g/L agar) supplemented with a 1:1000 dilution of compound stocks or DMSO. Plates were incubated at 28 °C for 2 days without shaking before imaging with a smartphone camera (Apple iPhone X). Images are representative of at least two biological replicates.
# [6] = tested on: ExpR2; details: cited from earlier work; for ExpR2 antagonism (percent inhibition): 5 µM compound against 5 µM OHHL, negative values indicate potential activators; for ExpR2 [%] (agonism, percent activation): compounds at 200 μM, cellulase activity in P. versatile AC5099, ref Palmer et al., 2011 (main ref 44, SI ref 6)
# [7] = target: ExpR2 (Pectobacterium versatile, UniProt Q1A4U9); experiment: E. coli GFP reporter with ExpR2-activated promoter (prsmA); type: cell-based, Pectobacterium versatile Ecc71
# Sequence of ExpR2 (Pectobacterium versatile, UniProt Q1A4U9) (Q1A4U9 entry or part of it): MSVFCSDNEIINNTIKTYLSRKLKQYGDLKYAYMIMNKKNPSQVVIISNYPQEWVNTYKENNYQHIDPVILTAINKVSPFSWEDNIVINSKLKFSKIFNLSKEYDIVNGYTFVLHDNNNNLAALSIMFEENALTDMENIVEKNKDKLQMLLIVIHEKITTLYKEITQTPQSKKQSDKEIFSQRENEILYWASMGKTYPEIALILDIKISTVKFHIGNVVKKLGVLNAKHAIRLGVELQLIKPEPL
# Excerpt: One difference between our prior study in ExpR1/2 and that reported here in EsaR is that the former relied on QS-controlled phenotypes in P. versatile Ecc71 (i.e., cellulase and pectate lyase activity) to measure compound activity, unlike the heterologous transcriptional reporters used for EsaR. To further investigate the differences in antagonism assay data observed between EsaR and ExpR1/2, an E. coli reporter was created with an ExpR2 protein production plasmid (pJN105-expR2) and a reporter plasmid with an ExpR2-activated promoter (prsmA) controlling GFP (see Methods section). […] We return to possible explanations for the differences observed between the ExpR2 phenotypic assays and transcriptional reporters below.
# Supporting Information — Stoutland et al.
# Additional experimental methods.
# Plasmid and reporter strain construction for ExpR2 reporters
# Gibson assembly was used to create all constructs. Strains, plasmids and primers are listed in Ta b l es S1 and S2. Plasmid pJN105-expR2 was created by amplifying expR2 from Pectobacterium versatile Ecc71 genomic DNA and inserting it into pJN105, amplified from pJN105-esaR. […] E. coli reporter strains were created by transforming pJN105-expR2 and prsmA:GFP into electrocompetent E. coli JLD271.
# E. coli ExpR2 reporter assay
# Single colonies of the reporter strain were used to inoculate LB medium supplemented with appropriate antibiotics, and these cultures were grown overnight at 37 °C with shaking at 200 rpm.
# Overnight cultures were diluted 1:10 in LB medium with appropriate antibiotics and grown at 37 °C to an OD600 of 0.22–0.27 before induction with 0.4 mg/mL arabinose. Arabinose concentration was optimized to maximize dynamic range of reporter data. Compounds were dissolved in DMSO, and 2 µL of this stock, or DMSO as a negative control, was added to each well of a clear-bottom, black 96-well plate prior to adding 198 µL of induced culture. Plates were incubated at 37 °C with shaking at 200 rpm for 3.5 hr. Assays were performed in technical and biological triplicate. Each well was mixed by pipetting before reading fluorescence and OD600. EC50 values were calculated based on a nonlinear regression of log(concentration) vs. response - variable slope (four parameters) using GraphPad Prism 9 software.
# [8] = target: T1, EsaR; experiment: P. stewartii ESN51 (ΔesaI) GFP reporter with EsaR-repressed promoter (pesaR); type: cell-based
# Excerpt: (§2) EsaR transcriptional activation and repression were examined using E. coli and P. stewartii reporters (strains and plasmids listed in Table S1; see Methods section for assay details). […] We constructed reporters in E. coli based on previously reported EsaR reporters (Table S1). Each strain contained an EsaR expression plasmid (pJN105-esaR) and a reporter plasmid with either an EsaR-activated promoter (pesaS) or an EsaR-repressed promoter (pesaR) upstream of luxABCDE or GFP.
# (§3) Gibson assembly was used to create all constructs. Plasmid pJN105-esaR was created by amplifying esaR from pAC-esaR and inserting it into pJN105. pesaSlux was created by inserting pesaS, amplified from pPesaR-AC:gfp, into the pCS-pesaRlux backbone. The pesaR promoter was amplified from pCS-pesaRlux and inserted into the pPesaR-AC:gfp backbone to create pesaR:GFP. P. stewartii reporter strains were created by transforming pesaR:GFP or pPesaR-AC:gfp into ESN51 by conjugation using E. coli S17 λpir as the donor strain. See SI for details of E. coli ExpR2 reporter construction.
# (§4) Compound stocks were prepared and plated as described for E. coli reporter assays. […] Cultures were diluted to an OD600 of 0.05, and 198 μL was added to each well of a clear-bottom, black 96-well plate and incubated for 6 h at 28 °C (200 rpm) before reading fluorescence and OD600.
# [9] = tested on: P. stewartii ESN51; type: cell-based, Pantoea stewartii; details: OD600; 100 µM–1 mM tested
# Excerpt: We were curious whether the EsaR agonists identified in the E. coli reporters were also active in EsaR’s native host organism. In past studies, some E. coli LuxR-type receptor reporters have yielded EC50 values for exogenous ligands that differ by orders of magnitude relative to reporters constructed in native bacteria. Overexpression of LuxR-type receptors in E. coli has been proposed to lead to increased DNA binding and an overestimation of associative receptor sensitivity to agonists, as measured with lower EC50 values. However, because dissociative LuxR-type receptors bind to DNA in the absence of ligand, high receptor expression could instead lead to an underestimate of agonism. To account for any unintended effects of the E. coli genetic background and test compound activity at native levels of EsaR, we created genetic reporters in P. stewartii (see above and Methods section for details).
# Supporting Information — Stoutland et al. […]
# interesting that constitutive activituy (uninduced) from pesaR promoter is so much 2 4 6 […]
# ESN51 pesaR-AC:GFP ESN51 pesaR:GFP
# Figure S1. Luminescence inhibition, dynamic range, and growth of reporter strains. […]
# (also on this page, place not known: 102 104 106 percent activation (GFP/OD600 - JLD)/3OC6 Normalized luminescence ✱✱✱✱✱✱✱✱ controls GFP/OD600 pesaS OD600 GAF 0.3 0.4 OD600 1mM 300µM)
# [10] = target: T1, EsaR; experiment: P. stewartii ESN51 (ΔesaI) GFP reporter with EsaR-activated promoter (pesaS); type: cell-based
# Excerpt: as §2, §3, §4
# [11] = 10 μM in CPG agar, ESN51, 2 days at 28 °C
# [12] = ref 6 (SI; Palmer et al., 2011)
# [13] = previously reported phenotypic reporter data, ref 6 (SI; Palmer et al., 2011)
# [14] = 100 μM in CPG agar, ESN51, 2 days at 28 °C
SMILES,activation at 100 µM [1] [%],inhibition at 100 µM [1] [%],ExpR1 antagonism [2] [%],"ExpR1 [%] (agonism, activation) [2]",activation at 100 µM [3] [%],inhibition at 100 µM [3] [%],LuxR antagonism [4] [%],"LuxR [%] (agonism, activation) [4]","induction of mucoidy [5, 11]","ExpR2 antagonism (percent inhibition) [6, 12] [%]","ExpR2 [%] (agonism, percent activation) [6]","ExpR2 agonism, in words ([7]; E. coli ExpR2 GFP reporter)",EC50 [1] [nM],EC50 [3] [nM],also measured
"CCCC(=O)CC(=O)N[C@H]1CCOC1=O [OHHL, 3-oxo-hexanoyl HL, reference compound]",100,0,0,100,100,0,0,100,smooth,0,100,acted as agonists,,,"EC50 [6, 13]: 2000 nM; EC50 [7]: 3.9 nM"
O=C1OCC[C@@H]1NS(=O)(=O)c1cccc(Cl)c1 [GAF 28],,,,,,,,,induced mucoidy,,,,2200,2200,
O=C1OCC[C@H]1NS(=O)(=O)c1ccc(Cl)c(Cl)c1 [GAF 55],,,,,,,,,,,,,,,"EsaR agonism at 100 μM (bound stated in text) ([3]; 100 μM, E. coli EsaR reporter): less than 50%; induction of mucoidy ([5]; concentration not given, CPG agar, ESN51): did not induce mucoidy"
"O=C(Cc1cccc([N+](=O)[O-])c1)N[C@H]1CCOC1=O [C14, 3-NO2 PHL]",22,-3,-15,115,62,-56,-18,130,,-4,103,acted as agonists,≥ 98000,≥ 68000,"EsaR agonism, in words [3]: moderate activator; EC50 [6, 13]: 500 nM; EC50 [7]: 160 nM; fold less potent than OHHL in ExpR2 E. coli reporter ([7]; E. coli ExpR2 GFP reporter): approximately 40 fold"
O=C1OCC[C@@H]1NS(=O)(=O)c1ccc(Br)cc1 [GAF 35],,,,,,,,,,,,,23000,23000,EC50 [8]: 27000 nM; growth inhibition in P. stewartii ESN51 reporters [9]: Growth inhibition; EC50 [10]: 24000 nM
"O=C1OCC[C@@H]1NS(=O)(=O)c1ccc(Cl)c(F)c1 [GAF 64, 3-F, 4-Cl BSHL]",,,,,,,,,,,,,,,EC50 [8]: 6700 nM; growth inhibition in P. stewartii ESN51 reporters [9]: Growth inhibition; EC50 [10]: 2700 nM
CCCCCC(O)CC(=O)N[C@H]1CCOC1=O (some centres unmarked) [H2],,,,,,,,,not at 10 μM,,,,,,"fold less potent than OOHL in EsaR ([3]; E. coli EsaR reporter EC50 values): ~20 fold; induction of mucoidy [5, 14]: induced mucoidy"
"O=C(CCc1ccc(Br)cc1)N[C@H]1CCOC1=O [B7, 4-Br phenylpropanoyl HL]",66,-36,78,3,56,-50,80,2,,66,8,behaved as an agonist,,,"EsaR agonism, in words [3]: agonized EsaR; IC50 [6, 13]: 2750 nM"
O=C1OCC[C@@H]1NS(=O)(=O)c1ccccc1 [GAF 57],,,,,,,,,not at 10 μM,,,,,,"induction of mucoidy [5, 14]: induced mucoidy"
